{
  "source": "patent EP1157985A1",
  "about": "(G.D. SEARLE & CO., priority 1996, dated 1997)",
  "key": {"[1]": {"biological_target": "T1, Human fibrinogen receptor (αIIbβ3) (Homo sapiens, UniProt P05106+P08514)", "T1 construct": "Human fibrinogen receptor (αIIbβ3) was purified from outdated platelets; from tissue; host or cells: outdated (human) platelets", "test": "Purified IIb/IIIa receptor assay (solid phase receptor assay, competition with biotinylated vitronectin)", "type": "binding", "settings": "purified receptor from outdated platelets; 1 nM biotinylated vitronectin; highest concentration tested 1.0 x 10^-4 M", "outline": "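Platelet-derived αIIbβ3 coated at 1.0 µg/mL overnight at 4 °C in TBS with 1 mM Ca, Mg, Mn, pH 7.4, BSA-blocked; compounds competed with 1 nM biotinylated vitronectin (final; top compound 1.0 × 10^-4 M) for 2 h at room temperature. Bound ligand detected via HRP anti-biotin, A450; normalized to maximum binding, four-parameter fit.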"}, "[2]": {"biological_target": "T2, Human vitronectin receptor (αvβ3) (Homo sapiens, UniProt P05106+P06756)", "T2 construct": "Human vitronectin receptor (αvβ3) was purified from human placenta; from tissue; host or cells: human placenta", "test": "Vitronectin adhesion assay (solid phase receptor assay, competition with biotinylated vitronectin)", "type": "binding"}, "[3]": {"settings": "purified receptor from human placenta; 1 nM biotinylated vitronectin; highest concentration tested 1.0 x 10^-4 M; read-out: AvB3 IC50"}},
  "note": "Counter-ions that a name gives are not always drawn. Like-named read-outs stand apart in the source and are kept apart here.",
  "data": [
    {"molecule": "CC(=O)NC(Cc1ccc(NC(=O)Nc2cccc(NC(=N)N)c2)cc1)C(=O)O", "note": "(centres unmarked) [Example 68, N-acetyl-4-[[[[3-[(aminoiminomethyl)amino]phenyl]amino]carbonyl]amino]phenylalanine, trifluoroacetate salt]", "values": [
      {"measurement": "IC50", "setting": "[1]", "result": 103, "unit": "nM"},
      {"measurement": "IC50", "setting": "[2]; [3]", "result": 782, "unit": "nM"}
    ]},
    {"molecule": "CC(C)OC(=O)NC(Cc1ccc(NC(=O)c2cccc(NC3=NC(=O)CN3)c2)cc1)C(=O)O", "note": "(centres unmarked) [Example 77, 4-[[[3-[(4,5-dihydro-4-oxo-lH-imidazol-2-yl)amino]phenyl]carbonyl]amino]-N-[(1-methylethoxy)-carbonyl]phenylalanine]", "values": [
      {"measurement": "IC50", "setting": "[1]", "result": 1260, "unit": "nM"},
      {"measurement": "IC50", "setting": "[2]; [3]", "result": 1.6, "unit": "nM"}
    ]},
    {"molecule": "N=C(N)Nc1cccc(C(=O)NCc2ccc(CCC(=O)O)cc2)c1", "note": "[Example 29, 4-[[[[3-[(aminoiminomethyl)amino]phenyl]carbonyl]amino]methyl]benzenepropanoic acid, trifluoroacetate salt]", "values": [
      {"measurement": "IC50", "setting": "[1]", "result": 1280, "unit": "nM"},
      {"measurement": "IC50", "setting": "[2]; [3]", "result": 4000, "unit": "nM"}
    ]},
    {"molecule": "N=C(N)Nc1cccc(C(=O)Nc2ccc(CC(NS(=O)(=O)c3ccccc3)C(=O)O)cc2)c1", "note": "(centres unmarked) [Example 51, trifluoroacetate salt]", "values": [
      {"measurement": "IC50", "setting": "[1]", "result": 0.71, "unit": "nM"},
      {"measurement": "IC50", "setting": "[2]; [3]", "result": 0.63, "unit": "nM"}
    ]},
    {"molecule": "CC(C)(C)OC(=O)CCc1ccc(CCNC(=O)c2cccc(NC(=N)N)c2)cc1", "note": "[Example 58, monohydrate trifluoroacetate salt]", "values": [
      {"measurement": "IC50", "setting": "[1]", "result": 57200, "unit": "nM"},
      {"measurement": "IC50", "setting": "[2]; read-out: AvB3 IC50; purified receptor from human placenta; 1 nM biotinylated vitronectin; highest concentration tested 1.0 x 10^-4 M", "result": 48400, "unit": "nM"}
    ]},
    {"molecule": "CC(C)CC(=O)N[C@@H](Cc1ccc(NC(=O)c2cc(NC3=NCCCN3)cc(C(F)(F)F)c2)cc1)C(=O)O", "note": "[Example 107, N-(3-methyl-1-oxobutyl)-4-[[[3-[(1,4,5,6-tetrahydro-pyrimidin-2-yl)amino]-5-(trifluoromethyl)phenyl]-carbonyl]amino]phenylalanine, trifluoroacetate salt]", "values": [
      {"measurement": "IC50", "setting": "[1]", "result": 1570, "unit": "nM"},
      {"measurement": "IC50", "setting": "[2]; [3]", "result": 0.5, "unit": "nM"}
    ]},
    {"molecule": "CC(C)OC(=O)NC(Cc1ccc(NC(=O)c2cccc(N=C(N)N)c2)cc1)C(=O)O", "note": "(centres unmarked) [Example 50, trifluoroacetate salt]", "values": [
      {"measurement": "IC50", "setting": "[1]", "result": 21.7, "unit": "nM"},
      {"measurement": "IC50", "setting": "[2]; [3]", "result": 0.8, "unit": "nM"}
    ]},
    {"molecule": "COC(=O)C(C)Oc1ccc(NC(=O)c2cccc(NC(=N)N)c2)cc1", "note": "(centres unmarked) [Example 85C]", "values": [
      {"measurement": "IC50", "setting": "[1]", "result": 66000, "unit": "nM"},
      {"measurement": "IC50", "setting": "[2]; [3]", "result": 39600, "unit": "nM"}
    ]},
    {"molecule": "CCOC(=O)CS(=O)(=O)c1ccc(NC(=O)c2cccc(NC(=N)N)c2)cc1", "note": "[Example 80, ethyl [[4-[[[3-[(aminoiminomethyl)amino]phenyl]carbonyl]amino]phenyl]sulfonyl]acetate, monohydrate trifluoroacetate salt]", "values": [
      {"measurement": "IC50", "setting": "[1]", "result": 19800, "unit": "nM"},
      {"measurement": "IC50", "setting": "[2]; [3]", "result": 44200, "unit": "nM"}
    ]},
    {"molecule": "CS(=O)(=O)NC(Cc1ccc(NC(=O)c2cccc(NC(=N)N)c2)cc1)C(=O)O", "note": "(centres unmarked) [Example 48, trifluoroacetate salt]", "values": [
      {"measurement": "IC50", "setting": "[1]", "result": 15.6, "unit": "nM"},
      {"measurement": "IC50", "setting": "[2]; [3]", "result": 0.63, "unit": "nM"}
    ]}
  ]
}
